Assay [1] has as its target T1, Cdk2(H71C) (C177A) (Homo sapiens, UniProt P24941, C177A/H71C).
T1 construct: poly-histidine; made in house; host or cells: E. coli
Nature of the assay: Kinetic thiol consumption assay with Cdk2 mutant H71C. The note with it: additional mutation C177A. The assay is classed as binding. Also noted: key to Rate enhancement, Cdk2 H71C: rate constant with Cdk2 ÷ rate constant with model thiol (fold). The method in brief: (§1)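 His-tagged single-surface-cysteine Cdk2 mutants (C177A background) from E. coli, 5 μM in degassed phosphate buffer pH 8, pre-treated with immobilized TCEP beads. Fluorescence (ex/em 380/470 nm) read after 1 h at room temperature, normalized to DMSO/thiol-only control; first-order decay fits gave rate constants, divided by model-thiol rate for rate enhancement.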

Assay [2] can be described thus: Kinetic thiol consumption assay with model thiol glutathione. Also noted: Rate constant with glutathione (k(GSH)): unit not given here. The note with it: for Rate constant with glutathione (k(GSH)): 500 μM ligand, 5 μM thiol, phosphate buffer pH 8; for Rate constant with Glutathione: Protein: Glutathione, cysteine position NA, in h-1. The assay is classed as physicochemical. The procedure, abridged: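 Rate constants for acrylamide reaction with 5 μM glutathione come from first-order exponential fits of normalized fluorescence decay (ex 380, em 470 nm). Reactions run in degassed phosphate buffer at pH 8 containing TCEP beads, room temperature.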

The target in assay [3] is T2, Cdk2[C177A, F80C, K278C] (Homo sapiens, UniProt P24941, C177A/F80C/K278C).
T2 construct: poly-histidine; made in house; host or cells: E. coli
Nature of the assay: Kinetic thiol consumption assay with mutant Cdk2 as model thiol. The assay is classed as binding. Also noted: unit not given here. The settings on record: 500 μM ligand, 5 μM thiol, phosphate buffer pH 8. The procedure, abridged: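 Model thiol: His-tagged human Cdk2 C177A/F80C/K278C (two engineered surface cysteines), E. coli-expressed, 5 μM in degassed phosphate buffer pH 8 with immobilized TCEP beads (2% v/v). Fluorescence (ex/em 380/470 nm) followed over time at room temperature, normalized to DMSO/thiol control. First-order decay fit gives rate constants.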

In assay [4] the target is T3, human cyclin-dependent kinase 2 (Cdk2) (Homo sapiens, UniProt P24941).
T3 construct: poly-histidine; made in house; host or cells: E. coli
As to the kind of experiment: Kinetic thiol consumption assay with wild type Cdk2 (C177). It counts as binding. Also noted: key to Rate enhancement, Cdk2 WT: k(Cdk2) divided by k(model thiol); Rate constant with Cdk2 (k(Cdk2)): unit not given here. The settings on record: for Rate constant with Cdk2 (k(Cdk2)): 500 μM ligand, 5 μM thiol, phosphate buffer pH 8; for Rate enhancement, Cdk2 WT: no additional mutations; for Rate constant with Cdk2 WT: Protein: Cdk2, cysteine position WT, in h^-1; for k(Cdk2)/k(Cdk2_mut) rate enhancement: model thiol Cdk2[C177A, F80C, K278C]; for k(Cdk2)/k(GSH) rate enhancement: model thiol glutathione. The method in brief:
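His-tagged human Cdk2 from E. coli (sole surface cysteine C177) or a model thiol, each 5 μM in degassed phosphate buffer pH 8 with immobilized TCEP, reacted with acrylamides at room temperature. Fluorescence (ex 380/em 470) normalized to DMSO/thiol control over time; first-order rate constants, Cdk2 rate divided by model-thiol rate.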

In assay [5] the target is T4, Cdk2(T182C) (C177A) (Homo sapiens, UniProt P24941, C177A/T182C).
T4 construct: poly-histidine; made in house; host or cells: E. coli
As to the kind of experiment: Kinetic thiol consumption assay with Cdk2 mutant T182C. The assay is classed as binding. Also noted: key to Rate enhancement, Cdk2 T182C: rate constant with Cdk2 ÷ rate constant with model thiol (fold). The note with it: additional mutation C177A; for Rate constant with Cdk2 T182C: Protein: Cdk2, cysteine position T182C, in h^-1. The procedure, abridged: as §1

Assay [6] deals with T5, Cdk2(S276C) (C177A) (Homo sapiens, UniProt P24941, C177A/S276C).
T5 construct: poly-histidine; made in house; host or cells: E. coli
Nature of the assay: Kinetic thiol consumption assay with Cdk2 mutant S276C. The assay is classed as binding. Also noted: key to Rate enhancement, Cdk2 S276C: rate constant with Cdk2 ÷ rate constant with model thiol (fold). The settings on record: additional mutation C177A; for Rate constant with Cdk2 S276C: Protein: Cdk2, cysteine position S276C, in h^-1. The method in brief:
as §1

Assay [7] concerns the target T6, Cdk2(C177A, F80C) (Homo sapiens, UniProt P24941, C177A/F80C).
T6 construct: poly-histidine; made in house; host or cells: E. coli
As to the kind of experiment: Kinetic thiol consumption assay with Cdk2 mutant F80C, incl. kobs versus concentration (Kd, k2). It counts as binding. The note with it: additional mutation C177A; for Rate constant with Cdk2 F80C: Protein: Cdk2, cysteine position F80C, in h^-1. Also noted: key to Rate enhancement, Cdk2 F80C: Cdk2 rate constant divided by model-thiol rate constant. The method in brief:
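His-tagged Cdk2(C177A/F80C) from E. coli or model thiol, 5 μM in degassed phosphate buffer pH 8 with TCEP beads, reacted with acrylamide ligands; fluorescence (ex/em 380/470 nm) normalized to DMSO control and fitted to first-order decay for kobs. Kd and k2 obtained from hyperbolic fit of kobs versus ligand concentration.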

In assay [8] the target is T7, Cdk2(R122C) (C177A) (Homo sapiens, UniProt P24941, C177A/R122C).
T7 construct: poly-histidine; made in house; host or cells: E. coli
Nature of the assay: Kinetic thiol consumption assay with Cdk2 mutant R122C. The settings on record: additional mutation C177A; for Rate constant with Cdk2 R122C: Protein: Cdk2, cysteine position R122C, in h-1. The assay is classed as binding. Also noted: key to Rate enhancement, Cdk2 R122C: rate constant with Cdk2 ÷ rate constant with model thiol (fold). The method in brief:
as §1

The target in assay [9] is T8, Cdk2(N272C) (C177A) (Homo sapiens, UniProt P24941, C177A/N272C).
T8 construct: poly-histidine; made in house; host or cells: E. coli
As to the kind of experiment: Kinetic thiol consumption assay with Cdk2 mutant N272C. The assay is classed as binding. Also noted: key to Rate enhancement, Cdk2 N272: rate constant with Cdk2 ÷ rate constant with model thiol (fold). The settings on record: for Rate enhancement, Cdk2 N272: Cdk2 N272, additional mutation C177A; for Rate constant with Cdk2 N272C: Protein: Cdk2, cysteine position N272C, additional mutation C177A, in h^-1. The procedure, abridged: as §1

In assay [10] the target is T9, Cdk2(S181C) (C177A) (Homo sapiens, UniProt P24941, C177A/S181C).
T9 construct: poly-histidine; made in house; host or cells: E. coli
As to the kind of experiment: Kinetic thiol consumption assay with Cdk2 mutant S181C. The assay is classed as binding. Also noted: key to Rate enhancement, Cdk2 S181C: rate constant with Cdk2 ÷ rate constant with model thiol (fold). The settings on record: additional mutation C177A; for Rate constant with Cdk2 S181C: Protein: Cdk2, cysteine position S181C, in h^-1. The procedure, abridged: as §1

The structures appear in SMILES notation.

As for `C=CC(=O)N1CCOC2(CCCCC2)C1` [CA-193], in [1], the “Rate enhancement, Cdk2 H71C” value came out at 1.842. In [1] (Protein: Cdk2, cysteine position H71C, in h^-1), the “Rate constant with Cdk2 H71C” value was 0.05131. For the same compound, in assay [2], the “Rate constant with glutathione (k(GSH))” value is 0.02378 and the “Rate constant with Glutathione” value amounted to 0.02785. Besides, the “Rate constant with Cdk2[C177A, F80C, K278C] (k(Cdk2_mut))” value (“Rate constant … (k(Cdk2_mut))” for short) in assay [3] came out at 0.01059. In assay [4], the “Rate constant with Cdk2 (k(Cdk2))” value worked out at 0.02444; the “Rate enhancement, Cdk2 WT” value worked out at 0.8776; the “Rate constant with Cdk2 WT” value amounted to 0.02444; the “k(Cdk2)/k(Cdk2_mut) rate enhancement” value was determined as 2.308. Also, the “k(Cdk2)/k(GSH) rate enhancement” value in assay [4] amounted to 1.028. Besides, in assay [5], the “Rate enhancement, Cdk2 T182C” value is on record as 3.878 and the “Rate constant with Cdk2 T182C” value is listed as 0.108. In addition, in assay [6], the “Rate enhancement, Cdk2 S276C” value was 1.379 and the “Rate constant with Cdk2 S276C” value is 0.03841. Moreover, in [7], the “Rate enhancement, Cdk2 F80C” value worked out at 1.419 and the “Rate constant with Cdk2 F80C” value was determined as 0.03952. Moreover, in assay [8], the “Rate enhancement, Cdk2 R122C” value was 0.6093 and the “Rate constant with Cdk2 R122C” value is reported as 0.01697. In [9], the “Rate enhancement, Cdk2 N272” value is 0.8528 and the “Rate constant with Cdk2 N272C” value came to 0.02375. Also, in assay [10], the “Rate enhancement, Cdk2 S181C” value turned out to be 0.4083 and the “Rate constant with Cdk2 S181C” value is listed as 0.01137.
On to `C=CC(=O)Nc1ccc(C23CC4CC(CC(O)(C4)C2)C3)cc1` [CA-194], for which the “Rate enhancement, Cdk2 H71C” value in [1] worked out at 0. In assay [2], the “Rate constant with glutathione (k(GSH))” value is 0.00306 and the “Rate constant with Glutathione” value amounted to 0.004494. The “Rate constant … (k(Cdk2_mut))” value in assay [3] is reported as 0.01393. In assay [4], the “Rate constant with Cdk2 (k(Cdk2))” value was determined as 0.00505; the “Rate enhancement, Cdk2 WT” value is given as 1.123; the “Rate constant with Cdk2 WT” value was 0.005049; the “k(Cdk2)/k(Cdk2_mut) rate enhancement” value is 0.3625. Besides, the “k(Cdk2)/k(GSH) rate enhancement” value in assay [4] was found to be 1.651. For the same compound, in assay [5], the “Rate enhancement, Cdk2 T182C” value came to 10.72 and the “Rate constant with Cdk2 T182C” value came out at 0.04819. Besides, in assay [6], the “Rate enhancement, Cdk2 S276C” value is recorded as 0.7641 and the “Rate constant with Cdk2 S276C” value is recorded as 0.003434. Further, in [7], the “Rate enhancement, Cdk2 F80C” value is on record as 0.9911 and the “Rate constant with Cdk2 F80C” value is on record as 0.004454. In addition, in assay [8], the “Rate enhancement, Cdk2 R122C” value is 0.7287 and the “Rate constant with Cdk2 R122C” value came to 0.003275. Besides, in [9], the “Rate enhancement, Cdk2 N272” value was found to be 0.2125 and the “Rate constant with Cdk2 N272C” value is on record as 0.0009551. Besides, in assay [10], the “Rate enhancement, Cdk2 S181C” value is reported as 0.6985 and the “Rate constant with Cdk2 S181C” value is 0.003139.
`C=CC(=O)NC1CC(NC(=O)C2CCC2)C1` (stereo not shown) [CA-202]: the “Rate enhancement, Cdk2 H71C” value in assay [1] is 0. In assay [2], the “Rate constant with glutathione (k(GSH))” value came to 0.00506 and the “Rate constant with Glutathione” value is reported as 0.007805. Moreover, the “Rate constant … (k(Cdk2_mut))” value in [3] is given as 0.00132. Further, in assay [4], the “Rate constant with Cdk2 (k(Cdk2))” value is recorded as 0.00543; the “Rate enhancement, Cdk2 WT” value is 1.211; the “Rate constant with Cdk2 WT” value worked out at 0.009448; the “k(Cdk2)/k(Cdk2_mut) rate enhancement” value is recorded as 4.114. Besides, the “k(Cdk2)/k(GSH) rate enhancement” value in assay [4] is on record as 1.074. Further, in assay [5], the “Rate enhancement, Cdk2 T182C” value came out at 2.301 and the “Rate constant with Cdk2 T182C” value is reported as 0.01796. Also, in assay [6], the “Rate enhancement, Cdk2 S276C” value was 0.3503 and the “Rate constant with Cdk2 S276C” value is 0.002734. In assay [7], the “Rate enhancement, Cdk2 F80C” value turned out to be 0.2601 and the “Rate constant with Cdk2 F80C” value amounted to 0.00203. For the same compound, in assay [8], the “Rate enhancement, Cdk2 R122C” value amounted to 0.2272 and the “Rate constant with Cdk2 R122C” value turned out to be 0.001773. In assay [9], the “Rate enhancement, Cdk2 N272” value is 0.6405 and the “Rate constant with Cdk2 N272C” value worked out at 0.004999. For the same compound, in [10], the “Rate enhancement, Cdk2 S181C” value is listed as 1.095 and the “Rate constant with Cdk2 S181C” value turned out to be 0.008545.

These data come from patent publication US11415579B2, “Assay for measuring a rate of reaction between a target and a ligand candidate” (Imperial College Innovations Ltd., priority 2016, dated 2022).
